Here are results for 18 molecules from patent publication US6900195B2, “Manzamines for treatment of drug resistant infection” (The University of Mississippi, priority 2000, dated 2005).

By ED50 is commonly meant the dose that gives a 50% effect, or the effect in half of the subjects. Read a high ED50 as weaker potency. In general, EC50 refers to the concentration giving half of the maximal effect. What is called IC50 is the concentration that gives 50% inhibition. As a reminder, the % Inhibition is the drop in the measured response relative to a control, in per cent. Lower therefore signals little suppression.

The test system of one data set is P. berghei N strain. Nature of the data set: Oral antimalarial activity against P. berghei N strain. The format is in vivo, Plasmodium berghei. The note with it: orally in DMSO, preliminary results.
Data set [1] is described as follows: Cytotoxicity of microbial metabolites versus parent compounds (cells not stated). The class given is cell-based.
The next data set has as its system HIV-1 in human PBM cells. Nature of the data set: Anti-HIV activity in human PBM cells. The class given is cell-based. The following applies: human PBM cells.
For the next data set, the system named is human PBM cells. Nature of the data set: Cytotoxicity in human PBM cells. The following applies: read-out: Cytotoxicity in human PBM cells IC50.
The next data set relates to P. berghei. As to the kind of experiment: In vivo antimalarial activity in P. berghei-infected mice. The following applies: for reduction of parasitemia: single i.p. 100 μmoles/kg, comparison 2 days after treatment. Also on record: species or system Plasmodium berghei. The protocol: In Vivo Evaluation of Antimalarial Activity. (National University of Singapore by Dr. Kenny Ang, confirmation of activity at the WHO). Four-week-old, male Swiss albino mice are injected intraperitoneally with 10^7 P. berghei-infected mouse erythrocytes. On day 2 after infection, mice are treated with a single intraperitoneal injection of either the test compound or a reference drug (chloroquine or artemisinin) within a concentration range of 50 to 1,000 μmol/kg of body weight. All test compounds and reference drugs were injected as a suspension in 5% Tween 60 saline. For oral administration, the test compounds are given as a suspension in corn oil, and mice are given two consecutive doses of test compound at 100 μmol/kg on days 2 and 3 after infection. […] Control mice receive only 5% Tween 60 saline or corn oil. Survival of mice was recorded daily. Percent parasitemia is determined microscopically (magnification, ×1,000) from mouse-tail blood smears that were fixed with methanol and stained with Giemsa stain. Blood samples from individual P. berghei-infected mice were collected at various times after a single intraperitoneal treatment of 100 μmol/kg of manzamine A per kg on day 3 after infection. For transmission electron microscopy, approximately 0.5-ml blood samples are fixed with 3% glutaraldehyde in 0.1 M cacodylate buffer (pH 7.4), postfixed with 1% osmium tetroxide and 1% uranyl acetate, dehydrated in a graded ethanol series, and embedded in Spurr's resin. The resulting blocks are cut by using a Reichert-Jung Ultracut with a glass knife. Ultra thin sections were mounted on 150-mesh copper grids, stained with 1% uranyl acetate and 1% lead citrate, and examined with a JEM-100CX electron microscope. Manzamine in plasma was detected by liquid chromatography=selected reaction monitoring-mass spectrometry (LC-SRM-MS). P. berghei-infected mice will be treated with the alkaloid (100 μmol/kg intraperitoneally) on day 3 post infection. Blood samples are collected from individual mice at specific times up to 48 h posttreatment. Plasma was isolated by centrifugation and extracted with 95% acetonitrile containing 5 mM ammonium acetate. The plasma extract was filtered, and 5 μl samples are injected into a Shimadzu LC-10 AD microbore high-pressure liquid chromatograph interfaced with a Perkin-Elmer API 300 turbo-ion-spray tandem mass spectrometer. Samples are separated on a Prodigy C-18 column (30 by 1 mm, 5-μm inner diameter) by elution at 50 μl/min with 86% acetonitrile containing 5 mM ammonium acetate. Manzamine can be detected by monitoring the transition of the protonated manzamine precursor ion from the (M+H)^+ to the (M+H —H2O)^+. Peak areas for the product ion chromatograms are integrated, and concentrations are determined from a linear calibration curve for manzamine in spiked plasma. The limit of detection for the manzamines in plasma by LC-SRM-MS is 2.5 pg. Results are subjected to a nonparametric statistical assessment with a confidence interval of 99% (p<0.01) by using Analyse-it software linked to Microsoft Excel. The program uses the Mann-Whitney U test to determine significant differences between two groups of data.

The test system of a further data set is M. tuberculosis (H37Rv). As to the kind of experiment: microbe, parasite or virus in culture. The class given is cell-based, Mycobacterium tuberculosis.
Data set [2] relates to P. falciparum W2 clone (Indochina, chloroquine-resistant). As to the kind of experiment: In vitro antimalarial activity, parasite LDH assay, W2 clone. The following applies: P. falciparum W2 clone; for IC50: Plasmodium falciparum, read-out: W2 Clone IC50. The format is cell-based, Plasmodium falciparum.
For data set [3], the system named is P-388 mouse lymphoma cells. The following applies: cited from earlier work.
Data set [4] concerns Vero cells. Nature of the data set: In vitro cytotoxicity to mammalian cells (neutral red).
For data set [5], the system named is P. falciparum D6 clone (Sierra Leone, chloroquine-sensitive). As to the kind of experiment: In vitro antimalarial activity, parasite LDH assay, D6 clone. The format is cell-based, Plasmodium falciparum. The note with it: for IC50: Plasmodium falciparum.
Data set [6] concerns human lung and colon carcinoma cells. The following applies: cited from earlier work.
Data set [7] deals with Vero cells. The note with it: African green monkey, 48 h.
Data set [8] deals with P-388 mouse lymphoma cells. Nature of the data set: Cytotoxicity against P-388 mouse lymphoma cells. The format is cell-based.
The nature of data set [9]: Cytotoxicity against human lung and colon carcinoma cells. The format is cell-based.
Setting [10] is: M. tuberculosis H37Rv, test concentration not given.
Setting [11] is: P. berghei-infected mice, single i.p. dose 100 μmoles/kg.
[12] abbreviates: Mycobacterium tuberculosis, M. tuberculosis H37Rv, read-out: MIC.

In brackets after ≈: the same amount, converted by molar mass. Where two headings read alike, the source gives them in different places.

Consider 8-hydroxymanzamine, for which, in the data set with P. berghei N strain, the ED50 was < 10 mg/kg.
Consider `O=CC1=C[C@@]2(O)CC/C=C\CCCCN3CC[C@@H]1[C@]1(CC4/C=C\CCCCN4[C@H]12)C3` (stereo partly shown) [Ircinal A], for which the “cytotoxicity relative to the parent compounds” value in data set [1] is recorded as “less cytotoxic than the parent compounds”. The same molecule returned an EC50 in the data set on HIV-1 in human PBM cells of 45.2 µM. The half-maximal inhibitory concentration (IC50) in the data set on human PBM cells turned out to be 34.2 µM. Besides, the “activity in vivo against malaria” value with P. berghei (mice) was “failed to show any activity in vivo against malaria”. Further, the MIC against M. tuberculosis (H37Rv) (M. tuberculosis H37Rv) is <12.5 µg/mL. In the data set on M. tuberculosis (H37Rv) (setting [10]), the “% Inhibition” value came to 98%.
On to (+)-8-Hydroxymanzamine A, for which the “W2 Clone IC50” value in data set [2] worked out at 8.0 ng/mL. Also, the “cytotoxicity, reported” value in [3] is “inactive”. In the data set on Vero cells [4], the “Cytotoxicity TC50” value is given as 320 ng/mL. Moreover, the “D6 Clone IC50” value in [5] (P. falciparum D6 clone) stood at 6.0 ng/mL. The MIC with M. tuberculosis (H37Rv) (M. tuberculosis H37Rv) is <6.25 µg/mL. In the data set with M. tuberculosis (H37Rv) (setting [10]), the “% Inhibition” value is reported as 100%.
Consider Manzamine L, for which the MIC with M. tuberculosis (H37Rv) (M. tuberculosis H37Rv) was <12.5 µg/mL. In addition, the “% Inhibition” value in the data set on M. tuberculosis (H37Rv) (setting [10]) stood at 99%.
Turning to `O=C1CCCN2[C@@H](CC1)C[C@]13CN4CCCC/C=C\CC[C@](O)(C=C(c5nccc6c5[nH]c5c(O)cccc56)C1CC4)[C@H]23` (stereo partly drawn) [ent-Manzamine F, ent-manzamine F], the response in the data set on HIV-1 in human PBM cells was half-maximal at 94.8 µM (EC50). Also, the IC50 in the data set with human PBM cells was found to be 40.8 µM. For the same molecule, the MIC against M. tuberculosis (H37Rv) (M. tuberculosis H37Rv) was >12.5 µg/mL.
For the molecule `O[C@]12C=C(c3nccc4c3[nH]c3ccccc34)C3CCN(CCCC/C=C\CC1)C[C@@]31C[C@]34CC[C@H](CCCN3[C@H]12)O4` (stereo partly shown) [6-Deoxymanzamine X, 6-deoxymanzamine X], in the data set on M. tuberculosis (H37Rv) (M. tuberculosis H37Rv), the MIC was <12.5 µg/mL. In the data set on M. tuberculosis (H37Rv) (setting [10]), the “% Inhibition” value is reported as 98%.
Consider kauluamine, for which the “cytotoxicity” value in data set [6] is “inactive”.
For the molecule `C[C@@H]1CC[C@H]2[C@@H](C)C(=O)O[C@@H]3O[C@@]4(C)CC[C@@H]1[C@]32OO4` [Artemisinin, artemisinin, reference compound], the IC50 in data set [2] came to 0.0063 µg/mL (≈ 0.0223 µM); in data set [5] (P. falciparum D6 clone, read-out: D6 Clone IC50), 0.01 µg/mL (≈ 0.0354 µM). In addition, the average survival days in the data set on P. berghei (setting [11]) fell in the range of 2 to 3 days. In addition, the “Cytotoxicity TC50” value with Vero cells [7] is reported as >5,000 ng/mL.
As to “ent-8-hydroxy-manzamine A [ent-8-Hydroxymanzamine A]”, the response with HIV-1 in human PBM cells was half-maximal at 44.2 µM (EC50). In [8], the “cytotoxicity IC50” value worked out at 0.25 µg/mL. Further, in the data set on human PBM cells, the IC50 was found to be 4.9 µM. For the same molecule, in the data set on P. berghei (P. berghei-infected mice), the “reduction of parasitemia” value is reported as “efficiently reduced parasitemia”. Also, in the data set on P. berghei (setting [11]), the average survival days was 9 to 11 days. Further, the “in vivo activity against P. berghei relative to chloroquine or artemisinin” value in the data set on P. berghei (mice) is listed as “in vivo activity against P. berghei greater than chloroquine or artemisinin”. The MIC with M. tuberculosis (H37Rv) (M. tuberculosis H37Rv) is 3.13 µg/mL. Moreover, the “% Inhibition” value in the data set with M. tuberculosis (H37Rv) (setting [10]) came out at 99%.
In turn, `O[C@@H]1CCCN2CC[C@@H]1O[C@@]13CC[C@@H](OC[C@]45CN6CCCC/C=C\CC[C@](O)(C=C(c7nccc8c7[nH]c7ccccc78)[C@@H]4CC6)[C@H]25)[C@@H](O)CCN1[C@@H]1[C@]2(CN4CCCC/C=C\CC[C@]1(O)C=C(c1nccc5c1[nH]c1ccccc15)[C@@H]2CC4)C3` [neo-Kauluamine, neo-kauluamine] had an IC50 in data set [9] of 1 µg/mL (≈ 0.859 µM). Further, in the data set on M. tuberculosis (H37Rv) (setting [10]), the “% Inhibition” value came out at 44%. Besides, in the data set on M. tuberculosis (H37Rv) (setting [12]), the MIC was > 12.5 µg/mL.
Molecule (−)-12, 34-Oxamanzamine F returned an EC50 in the data set with HIV-1 in human PBM cells of 20.4 µM. Further, the IC50 in the data set on human PBM cells amounted to 75.2 µM.
As for `CO[C@H]1/C=C/O[C@@]2(C)Oc3c(C)c(O)c4c(O)c(c(/C=N/N5CCN(C)CC5)c(O)c4c3C2=O)NC(=O)/C(C)=C\C=C\[C@H](C)[C@H](O)[C@@H](C)[C@@H](O)[C@@H](C)[C@H](OC(C)=O)[C@@H]1C` [Rifampin, reference compound], the “% Inhibition” value in the data set with M. tuberculosis (H37Rv) is 100%. This molecule also gave an MIC in the data set on M. tuberculosis (H37Rv) (Mycobacterium tuberculosis, H37RV) of 0.25 µg/mL (≈ 0.304 µM).
In the case of `O[C@]12C=C(c3nccc4c3[nH]c3ccccc34)[C@@H]3CCN(CCCC/C=C\CC1)C[C@@]31CC/C=C\CCCCN[C@@H]12` [Manzamine J], the “% Inhibition” value with M. tuberculosis (H37Rv) (setting [10]) is on record as 99%. In addition, the MIC with M. tuberculosis (H37Rv) (setting [12]) was < 12.5 µg/mL.
On to `O=C1CCCN2[C@H]3[C@]45CN6CCCC/C=C\CC[C@]3(C=C(c3nccc7c3[nH]c3c(O)cccc37)[C@H]4CC6)O[C@@]2(CC1)C5` [8-HOMA Metabolite 1], for which the “cytotoxicity relative to the parent compounds” value in data set [1] is reported as “less cytotoxic than the parent compounds”. In the data set on M. tuberculosis (H37Rv) (setting [10]), the “% Inhibition” value is given as 98%. Further, the MIC with M. tuberculosis (H37Rv) (setting [12]) was < 12.5 µg/mL.
“8,12-di-O-acetyl ent-8-hydroxymanzamine A [ent-8-Hydroxymanzamine A diAc]”: the MIC with M. tuberculosis (H37Rv) (M. tuberculosis H37Rv) was <6.25 µg/mL. Besides, in the data set with M. tuberculosis (H37Rv) (setting [10]), the “% Inhibition” value is on record as 95%.
As for “15,16,32,33-tetrahydro-ent-8-hydroxymanzamine A”, the MIC in the data set on M. tuberculosis (H37Rv) (M. tuberculosis H37Rv) is <6.25 µg/mL. Besides, in the data set on M. tuberculosis (H37Rv) (setting [10]), the “% Inhibition” value is 100%.
Consider `CCN(CC)CCCC(C)Nc1ccnc2cc(Cl)ccc12` (stereo not shown) [Chloroquine, chloroquine, reference compound], for which the IC50 in data set [2] was found to be 0.17 µg/mL (≈ 0.531 µM); in data set [5] (D6, read-out: D6 Clone IC50), 0.0155 µg/mL (≈ 0.0485 µM). In addition, the “reduction of parasitemia” value in the data set with P. berghei (P. berghei-infected mice) is reported as “comparable reduction of parasitemia”. The average survival days in the data set on P. berghei (in vivo, ip) is on record as 6 days. In addition, the “Cytotoxicity TC50” value in the data set on Vero cells [4] is >5,000 ng/mL.
Turning to `O=C1CCCN2[C@@H](CC1)C[C@]13CN4CCCC/C=C\CC[C@](O)(C=C(c5nccc6c5[nH]c5ccccc56)[C@@H]1CC4)[C@H]23` [Manzamine E], a half-maximal effect in the data set on HIV-1 in human PBM cells (EC50) was put at 18.7 µM. In addition, the IC50 in the data set on human PBM cells is 35.5 µM. The MIC with M. tuberculosis (H37Rv) (M. tuberculosis H37Rv) turned out to be 3.13 µg/mL (≈ 5.54 µM). Further, the “% Inhibition” value in the data set on M. tuberculosis (H37Rv) (setting [10]) was 99%.
